Drawing on patent US20240199692A1 (priority 2019, published 2024), this text covers IC50 for 21 compounds.

For this test, the target named is T1, MMP2 (Homo sapiens, UniProt P08253).
T1 sequence (P08253 110-660): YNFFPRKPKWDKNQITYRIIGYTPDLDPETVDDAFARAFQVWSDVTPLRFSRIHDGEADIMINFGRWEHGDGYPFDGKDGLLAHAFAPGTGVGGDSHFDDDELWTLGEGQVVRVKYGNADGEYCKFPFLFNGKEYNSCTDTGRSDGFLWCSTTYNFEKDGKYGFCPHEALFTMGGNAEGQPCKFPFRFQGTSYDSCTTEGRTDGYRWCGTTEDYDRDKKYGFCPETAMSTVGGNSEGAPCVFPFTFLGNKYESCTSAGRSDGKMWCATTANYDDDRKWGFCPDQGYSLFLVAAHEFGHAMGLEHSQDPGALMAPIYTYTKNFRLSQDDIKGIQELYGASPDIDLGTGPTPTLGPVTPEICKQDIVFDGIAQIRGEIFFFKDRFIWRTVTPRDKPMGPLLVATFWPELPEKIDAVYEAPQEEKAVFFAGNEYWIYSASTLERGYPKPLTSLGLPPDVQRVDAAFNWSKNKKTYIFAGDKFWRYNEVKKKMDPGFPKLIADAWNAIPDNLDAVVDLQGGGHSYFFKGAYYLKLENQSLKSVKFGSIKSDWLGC
The experiment in a line: Inhibitory effects on human MMP2 (Method 1), enzyme assay with MOCAc-Pro-Leu-Gly-Leu-A2pr(Dnp)-Ala-Arg-NH2 substrate, 96-well. The class given is biochemical. To be noted: read-out: Human MMP2, IC50. As to the method: In a reaction solution [50 mmol/L Tris-HCl (pH 7.5), 150 mmol/L NaCl, 10 mmol/L CaCl2, 0.05% Brij L23], 100 μg/mL human recombinant MMP2 enzyme and 1 mmol/L 4-Aminophenylmercuric acetate were mixed together, and reacted at 37° C. for 60 minutes. The human MMP2 activated through the reaction was poured into a 96-well microplate to reach a final concentration of 0.7 or 7 ng/mL.

[1] abbreviates: Test Example No. 1-1 (Method 1, 96-well microplate).
Setting [2] is: Test Example No. 1-1 (Method 1, 96-well).

Where two headings read alike, the source gives them in different places. *1 amine or outer side, *2 acyl side, *3 side chain or, on linkers, in order; H or OH if unused. Where a SMILES comes first, the peptide text is derived from it. Bridges are numbered along the chain shown (N, C = ends). Side-chain parts run from the residue outwards. [ ]: non-standard residue; d: D form. The star is where a group is joined. Benzoyl(4-O-C6H4-4-CONHMe) = CNC(=O)c1ccc(Oc2ccc(C(=O)*)cc2)cc1; Benzenesulfonyl(4-OPh) = O=S(=O)(c1ccc(Oc2ccccc2)cc1)*; X8 = CCCOc1ccc(C(=O)Nc2ccc(S(=O)(=O)*)cc2)cc1; Benzoyl(4-OPh) = O=C(c1ccc(Oc2ccccc2)cc1)*; d(γGlu) = O=C(O)[C@@H](CCC(=O)[*:2])N[*:1]; d(βAsp) = O=C(O)[C@@H](CC(=O)[*:2])N[*:1]; X7 = O=S(=O)(c1ccc(-c2ccc(OCCO)cc2)cc1)*; C16 diacid = O=C(O)CCCCCCCCCCCCCCC(=O)*; X13 = Cc1ccc(C#Cc2ccc(S(=O)(=O)*)s2)cc1; X5 = O=S(=O)(c1ccc(-c2ccc(CO)cc2)cc1)*; NMeGABA = CN(CCCC(=O)[*:2])[*:1]; NMeI = CC[C@H](C)[C@H](NC)C(=O)O; NMeE = CN[C@@H](CCC(=O)O)C(=O)O; NMeD = CN[C@@H](CC(=O)O)C(=O)O; NMeN = CN[C@@H](CC(N)=O)C(=O)O; Dap(Me) = CNC[C@H](N)C(=O)O; NMeM = CN[C@@H](CCSC)C(=O)O; NMeV = CN[C@H](C(=O)O)C(C)C; β3hP = O=C(O)C[C@@H]1CCCN1; NMeA = CN[C@@H](C)C(=O)O; Orn = NCCC[C@H](N)C(=O)O; Dab = NCC[C@H](N)C(=O)O; Dap = NC[C@H](N)C(=O)O; AEEA = NCCOCCOCC(=O)O; Aib = CC(C)(N)C(=O)O; Ahx = NCCCCCC(=O)O; Ava = NCCCCC(=O)O; GABA = NCCCC(=O)O; βAla = NCCC(=O)O

Turning to `CC(C)C[C@H](NC(=O)[C@H](CCN)NC(=O)[C@H](CC(=O)O)NC(=O)[C@H](CC(N)=O)N(C)C(=O)CCCNC(=O)c1ccc(Oc2ccccc2)cc1)C(=O)N(C)[C@@H](CCC(=O)O)C(=O)N1CCC[C@H]1C(N)=O` [Compound 113] ({Benzoyl(4-OPh)-GABA}-[NMeN]D[Dab]L[NMeE]P-NH2; N-terminus assumed), the 50% inhibitory concentration (IC50) under setting [1] came to 2.2 nM.
On the same count and under the same terms, for `CNC(=O)c1ccc(Oc2ccc(C(=O)NCCCCC(=O)N[C@@H](CCCCN)C(=O)N[C@@H](CC(=O)O)C(=O)N[C@@H](CCN)C(=O)N[C@@H](CC(C)C)C(=O)N(C)[C@@H](CCC(=O)O)C(=O)N3CCC[C@H]3CC(N)=O)cc2)cc1` [Compound 184] ({Benzoyl(4-O-C6H4-4-CONHMe)-Ava}-KD[Dab]L[NMeE][β3hP]-NH2; N-terminus assumed) the value was 0.61 nM.
On the same count and under the same terms, for `CC[C@H](C)[C@@H](C(=O)N1CCC[C@H]1CC(N)=O)N(C)C(=O)[C@H](CC(C)C)NC(=O)[C@H](CCN)NC(=O)[C@H](CC(=O)O)NC(=O)[C@H](CCCN)NC(=O)CCCNC(=O)c1ccc(Oc2ccccc2)cc1` [Compound 148] ({Benzoyl(4-OPh)-GABA}-[Orn]D[Dab]L[NMeI][β3hP]-NH2; N-terminus assumed) the value was 0.48 nM; for `CC[C@H](C)[C@@H](C(=O)N1CCC[C@H]1C(N)=O)N(C)C(=O)[C@H](CC(C)C)NC(=O)[C@H](C)NC(=O)[C@H](CC(=O)O)NC(=O)[C@H](CC(=O)O)N(C)C(=O)CCCNC(=O)c1ccc(Oc2ccccc2)cc1` [Compound 125] ({Benzoyl(4-OPh)-GABA}-[NMeD]DAL[NMeI]P-NH2), 0.47 nM; for `CC[C@H](C)[C@@H](C(=O)N1CCC[C@H]1CC(N)=O)N(C)C(=O)[C@H](CC(C)C)NC(=O)[C@H](CCN)NC(=O)[C@H](CC(=O)O)NC(=O)[C@H](CC(N)=O)N(C)C(=O)CCCNC(=O)c1ccc(Oc2ccccc2)cc1` [Compound 110] ({Benzoyl(4-OPh)-GABA}-[NMeN]D[Dab]L[NMeI][β3hP]-NH2; N-terminus assumed), 0.37 nM.
Same read-out and setting: for `CC[C@H](C)[C@@H](C(=O)N1CCC[C@H]1C(N)=O)N(C)C(=O)[C@H](CC(C)C)NC(=O)[C@H](CCN)NC(=O)[C@H](CC(=O)O)NC(=O)[C@H](CCSC)N(C)C(=O)CCCNC(=O)c1ccc(Oc2ccccc2)cc1` [Compound 134] ({Benzoyl(4-OPh)-GABA}-[NMeM]D[Dab]L[NMeI]P-NH2) the value was 2 nM.
Turning to `CC(C)C[C@H](NC(=O)[C@H](CCN)NC(=O)C[C@@H](NS(=O)(=O)c1ccc(-c2ccc(OCCO)cc2)cc1)C(=O)O)C(=O)N(C)[C@@H](CCC(=O)O)C(=O)N1CCC[C@H]1CC(N)=O` [Compound 640] ({X7-d(βAsp)}-[Dab]L[NMeE][β3hP]-NH2; N-terminus assumed), under setting [1], the IC50 was determined as 0.38 nM.
The same measure, in the same setting: for `CCCOc1ccc(C(=O)Nc2ccc(S(=O)(=O)N[C@H](CCC(=O)N[C@@H](CCN)C(=O)N[C@@H](CC(C)C)C(=O)N(C)[C@H](C(=O)N3CCC[C@H]3CC(N)=O)[C@@H](C)CC)C(=O)O)cc2)cc1` [Compound 696] ({X8-d(γGlu)}-[Dab]L[NMeI][β3hP]-NH2; N-terminus assumed) the value was 0.22 nM; for `CC[C@H](C)[C@@H](C(=O)N1CCC[C@H]1C(N)=O)N(C)C(=O)[C@H](CC(C)C)NC(=O)[C@H](C)NC(=O)[C@H](CC(=O)O)NC(=O)[C@@H](CC(N)=O)NC(=O)CCCNC(=O)c1ccc(Oc2ccccc2)cc1` [Compound 114] ({Benzoyl(4-OPh)-GABA}-[dN]DAL[NMeI]P-NH2; N-terminus assumed), 0.072 nM; for `CNC(=O)c1ccc(Oc2ccc(C(=O)NCCCCCC(=O)N[C@@H](CCCNC(=N)N)C(=O)N[C@@H](CC(=O)O)C(=O)N[C@@H](CCN)C(=O)N[C@@H](CC(C)C)C(=O)N(C)[C@@H](CCC(=O)O)C(=O)N3CCC[C@H]3CC(N)=O)cc2)cc1` [Compound 190] ({Benzoyl(4-O-C6H4-4-CONHMe)-Ahx}-RD[Dab]L[NMeE][β3hP]-NH2; N-terminus assumed), 1.8 nM.
Turning to `CC[C@H](C)[C@@H](C(=O)N1CCC[C@H]1C(N)=O)N(C)C(=O)[C@H](CC(C)C)NC(=O)[C@H](C)NC(=O)[C@H](CC(=O)O)NC(=O)[C@H](CC(N)=O)N(C)C(=O)CCCN(C)C(=O)c1ccc(Oc2ccccc2)cc1` [Compound 103] ({Benzoyl(4-OPh)}-[NMeGABA][NMeN]DAL[NMeI]P-NH2; N-terminus assumed), the IC50 under setting [1] came to 0.67 nM.
On the same count and under the same terms, for `CC(C)C[C@H](NC(=O)[C@H](CN)NC(=O)C[C@@H](NS(=O)(=O)c1ccc(-c2ccc(CO)cc2)cc1)C(=O)O)C(=O)N(C)[C@@H](CCC(=O)O)C(=O)N1CCC[C@H]1CC(N)=O` [Compound 637] ({X5-d(βAsp)}-[Dap]L[NMeE][β3hP]-NH2; N-terminus assumed) the value was 0.48 nM.
On the same count and under the same terms, for `CC[C@H](C)[C@@H](C(=O)N1CCC[C@H]1C(N)=O)N(C)C(=O)[C@H](CC(C)C)NC(=O)[C@H](CCN)NC(=O)[C@H](CC(=O)O)NC(=O)[C@H](CC(N)=O)NC(=O)CCCNC(=O)c1ccc(Oc2ccccc2)cc1` [Compound 107] ({Benzoyl(4-OPh)-GABA}-ND[Dab]L[NMeI]P-NH2; N-terminus assumed) the value was 0.32 nM.
On the same count and under the same terms, for `CC[C@H](C)[C@@H](C(=O)NC(C)(C)C(N)=O)N(C)C(=O)[C@H](CC(C)C)NC(=O)[C@H](C)NC(=O)[C@H](CC(=O)O)NC(=O)[C@H](C)N(C)C(=O)CCCNC(=O)c1ccc(Oc2ccccc2)cc1` [Compound 96] ({Benzoyl(4-OPh)-GABA}-[NMeA]DAL[NMeI][Aib]-NH2) the value was 0.74 nM.
For `CC[C@H](C)[C@@H](C(=O)N1CCC[C@H]1CC(N)=O)N(C)C(=O)[C@H](CC(C)C)NC(=O)[C@H](CCN)NC(=O)C[C@@H](NS(=O)(=O)c1ccc(-c2ccc(CO)cc2)cc1)C(=O)O` [Compound 642] ({X5-d(βAsp)}-[Dab]L[NMeI][β3hP]-NH2; N-terminus assumed), under setting [1], the concentration for half-maximal inhibition (IC50) stood at 1.6 nM.
Still for that read-out and setting: for `CC[C@H](C)[C@@H](C(=O)N1CCC[C@H]1CC(N)=O)N(C)C(=O)[C@H](CC(C)C)NC(=O)[C@H](CCN)NC(=O)[C@H](CC(=O)O)NC(=O)[C@H](CCC(=O)O)NC(=O)CCCNC(=O)c1ccc(Oc2ccccc2)cc1` [Compound 147] ({Benzoyl(4-OPh)-GABA}-ED[Dab]L[NMeI][β3hP]-NH2; N-terminus assumed) the value was 0.14 nM.
On to `CC[C@H](C)[C@@H](C(=O)N1CCC[C@H]1CC(N)=O)N(C)C(=O)[C@@H]1CCCCNC(=O)CCNC(=O)CC[C@H](NC(=O)CCCNS(=O)(=O)c2ccc(Oc3ccccc3)cc2)C(=O)N[C@@H](CC(=O)O)C(=O)N[C@@H](CCN)C(=O)N1` [Compound 894] ({Benzenesulfonyl(4-OPh)-GABA}-ED[Dab]K[NMeI][β3hP]-NH2; linker 1-4 via βAla (inferred); N-terminus assumed), for which the IC50 under setting [2] was found to be 1.1 nM.
For the compound `Cc1ccc(C#Cc2ccc(S(=O)(=O)NCCC(=O)N[C@@H](CC(N)=O)C(=O)N[C@@H](CC(=O)O)C(=O)N[C@@H](C)C(=O)N[C@@H](CC(C)C)C(=O)N(C)[C@H](C(=O)N3CCC[C@H]3C(N)=O)C(C)C)s2)cc1` [Compound 589] ({X13-βAla}-NDAL[NMeV]P-NH2; N-terminus assumed), the IC50 under setting [1] came out at 0.12 nM.
On the same count and under the same terms, for `CC[C@H](C)[C@@H](C(=O)N1CCC[C@H]1CC(N)=O)N(C)C(=O)[C@H](CC(C)C)NC(=O)[C@H](CNC)NC(=O)[C@H](CC(=O)O)NC(=O)[C@H](CC(N)=O)N(C)C(=O)CCCNC(=O)c1ccc(Oc2ccccc2)cc1` [Compound 154] ({Benzoyl(4-OPh)-GABA}-[NMeN]D[Dap(Me)]L[NMeI][β3hP]-NH2; N-terminus assumed) the value was 0.44 nM; for `CC(C)C[C@H](NC(=O)[C@H](CCN)NC(=O)[C@H](CC(=O)O)NC(=O)[C@H](CCCN)NC(=O)CCCNC(=O)c1ccc(Oc2ccccc2)cc1)C(=O)N(C)[C@@H](CCC(=O)O)C(=O)N1CCC[C@H]1CC(N)=O` [Compound 145] ({Benzoyl(4-OPh)-GABA}-[Orn]D[Dab]L[NMeE][β3hP]-NH2; N-terminus assumed), 0.72 nM.
Regarding `CC[C@H](C)[C@@H](C(=O)N1CCC[C@H]1CC(N)=O)N(C)C(=O)[C@H](CC(C)C)NC(=O)[C@H](C)NC(=O)[C@H](CC(=O)O)NC(=O)[C@H](CCCCNC(=O)COCCOCCNC(=O)COCCOCCNC(=O)CC[C@@H](NC(=O)CCCCCCCCCCCCCCC(=O)O)C(=O)O)NC(=O)CCCNS(=O)(=O)c1ccc(Oc2ccccc2)cc1` [Compound 903, (2S,5S,32R)-2-{[(2S)-1-({(2S)-1-[{(2S,3S)-1-[(2S)-2-(2-amino-2-oxoethyl)pyrrolidin-1-yl]-3-methyl-1-oxopentan-2-yl}(methyl)amino]-4-methyl-1-oxopentan-2-yl}amino)-1-oxopropan-2-yl]carbamoyl}-4,11,20,29,34-pentaoxo-5-{4-[(4-phenoxybenzene-1-sulfonyl)amino]butanamido}-13,16,22,25-tetraoxa-3,10,19,28,33-pentaazaoctatetracontane-1,32,48-tricarboxylic acid] ({Benzenesulfonyl(4-OPh)-GABA}-K([AEEA-AEEA-d(γGlu)-C16 diacid])DAL[NMeI][β3hP]-NH2), the IC50 under setting [2] is 0.127 nM.

Usually IC50 stands for the point on the concentration scale where inhibition reaches its midpoint.
